These results are taken from patent US11091512B2, “Modulation of antigen immunogenicity by deleting epitopes recognized by NKT cells” (Imnate Sarl, priority 2010, dated 2021).

One experiment deals with CD4+ NKT cells. Nature of the experiment: intranasal Der p 1 in BALB/c mice, spleen CD4+ T cells stained with peptide-loaded CD1d tetramers (facs). The class given is in vivo. The following applies: for percentage of CD4+ T cells stained with CD1d tetramers loaded with peptide: mice given natural sequence Der p 1 intranasally, 100 μg. The procedure: Peptides of SEQ ID13, SEQ ID14 and SEQ ID15 were synthesized and used to load CD1d tetramers.
BALB/c mice were submitted to intranasal administration of Der p 1, using 50 μl of saline containing 100 μg of Der p 1. This challenge procedure was repeated twice on three consecutive days at one-week interval. The mice were sacrificed 5 days after the last nasal instillation and the spleen was removed. CD4+ T cells were purified by magnetic bead sorting and incubated in the presence of the CD1d tetramers loaded with peptides of SEQ ID13, SEQ ID14 or SEQ ID15. By fluorescence-activated cell sorter (facs) determination, it was observed that a significant percentage of cells (±10%) were stained with the tetramers, identifying them as CD4+ NKT cells. It was therefore concluded that peptides of SEQ ID13, SEQ ID14 and SEQ ID15 were functional in binding to CD1d and in being recognized by NKT cells.
Next, a mutated form of Der p 1 was prepared by genetic engineering, in which the 3 aminoacid residues predicted to be in position P1 for CD binding of peptides of SEQ ID13, SEQ ID14 and SEQ ID15 were substituted by serine. The mutated Der p 1 (SEQ ID16) was used for nasal instillation as described above with Der p 1 in natural sequence (SEQ ID17).

Experiment [1] concerns NKT cells. Nature of the experiment: CD1d tetramers loaded with FVIII peptides incubated with spleen CD4+ T cells of FVIII-immunized hemophilia A mice, Facs. Type of experiment: cell-based. To be noted: for binding of CD1d tetramers loaded with peptide: spleen CD4+ T cells of hemophilia A mice injected IV with FVIII 2 IU on 4 occasions, 15 aminoacid long peptides. The procedure:
To determine whether these sequences could activate NKT cells in vivo, FVIII (2 IU) was injected intravenously to hemophilia A mice on 4 occasions separated by a 1-week interval. Hemophilia A mice produce no FVIII due to a stop codon introduced in the FVIII gene in exon 16.
Mice were sacrificed 10 days after the last injection, the spleen was removed and CD4+ T cells were prepared by magnetic bead sorting. NKT cells are characterized by expression of CD4 and recognition of antigen presented by CD1d molecule. A tetramer of CD1d was obtained from a commercial supplier and loaded with 15 aminoacid long FVIII peptides, which included peptides containing SEQ ID1, SEQ ID2 and SEQ ID3.
Hemophilia A mice were immunized with 2 IU Factor VIII on 4 occasions separated by one week. The spleen was then removed and CD4+ T cells were prepared by magnetic bead sorting. A fluorochrome-labeled tetramer of CD1d was obtained from a commercial supplier and loaded with 15 aminoacid long FVIII peptides, which included peptides containing SEQ ID1, ID2 and ID3. Loading was carried out at room temperature overnight in the dark.
Tetramers were then incubated for 30 minutes at 4° C. with the CD4+ T cell population and the cell suspension was analyzed by Facs.

A further experiment deals with hemophilia A mice. Nature of the experiment: direct immunization of hemophilia A mice with peptides containing a CD1d motif. The class given is in vivo. To be noted: direct immunization with peptide. The procedure:
Hemophilia A mice were immunized 3 times subcutaneously with 50 μg of an equimolar mixture of peptides of SEQ ID1 (44pept) and peptide of SEQ ID2 (256pept) adsorbed on aluminum hydroxyde. A control group received physiological serum instead of peptides. Plasma was taken 10 days after the last immunization and assessed for the presence of anti-Factor VIII antibodies, using a direct binding assay. Briefly, Factor VIII (10 IU/ml) was insolubilized on polystyrene plates, which were washed and incubated with a 1/10 dilution of plasma. After a further washing, a HRP-labeled goat anti-mouse antiserum was added, followed by an enzyme substrate. Colour development was read as OD.

Experiment [2] deals with NKT cells. Nature of the experiment: human CD1d tetramers loaded with peptides, recognition by NKT cells. Type of experiment: cell-based. The following applies: Mal d 1 peptides. The procedure: (§1) Synthetic peptides corresponding to SEQ ID9 and SEQ ID10 were produced. Their capacity to activate NKT cells was determined in vitro using human dendritic cells derived from peripheral blood monocytes of an individual sensitized to Mal d 1. Dendritic cells loaded with each one of the two peptides were incubated in the presence of NKT cells obtained from the same individual by sorting peripheral lymphocytes using specific markers such as CD4 and NKG2D.
(§2) As for Mal d 1, human CD1d tetramers loaded with a synthetic peptide representing the motif identified in the polypeptide of […]

Experiment [3] concerns NKT cells. Nature of the experiment: activation of NKT cells in vitro by human dendritic cells loaded with peptide or polypeptide. The class given is cell-based. The procedure: as §1, §2
Experiment [4] relates to NKT cells. Nature of the experiment: human CD1d tetramers loaded with IgG peptides, peripheral blood CD4+ T cells of patients given a therapeutic antibody (facs). The class given is cell-based. To be noted: patients injected with a therapeutic antibody during the previous 5 days. As for the experimental part: Synthetic peptides corresponding to SEQ ID18, SEQ ID19 and SEQ ID20 were produced and used to load human CD1d tetramers as for the examples above (see for instance example 4 for allergen Der p 1). Peripheral blood cells were obtained by venous puncture of patients who had received an injection of a therapeutic antibody during the previous 5 days. CD4+ T cells were purified by magnetic bead sorting. The cells were then incubated with tetramers loaded with peptides of SEQ ID18, SEQ ID19 or SEQ ID20. Analysis by facs identifies a significant proportion of NKT cells (±10%) labeled by tetramers.

The subject of experiment [5] is NKT cells. Nature of the experiment: JAWS2 cells loaded with Der p 1, production of IFN-gamma and IL-4 as markers of NKT activation. Type of experiment: cell-based. To be noted: JAWS2 cells loaded with the protein; cells from mice immunized with natural sequence Der p 1. As for the experimental part:
CD4+ T cells obtained from the above experiments were incubated in culture medium in the presence of an antigen-presenting cell which expresses the CD1d molecule. […] JAWS2 cells were loaded with Der p 1 and presentation of Der p 1-derived epitopes by CD1d was evaluated by measuring the production of cytokines such as IFN-gamma and IL-4 as markers of NKT activation.
Further, mutated Der p 1 (SEQ ID16) was used to load JAWS2 cells and tested for its capacity to activate NKT cells. For this experiment, NKT cells were used as obtained from mice immunized with Der p 1 in either natural or mutated configuration. The production of IFN-gamma and IL-4 was taken as an indication of NKT activation.

[6] abbreviates: dendritic cells and NKT cells of an individual sensitized to Mal d 1.
The mark [7] stands for this setting: alpha-gliadin polypeptide presented by antigen-presenting dendritic cells, same procedure as for Mal d 1.

Where a chain is given by its changes, count along the chain named. Names may count otherwise. “Also recorded” adds a separate entry of the source.

Turning to “HSAIAAVI (listed as Dermatophagoides pteronyssinus) [SEQ ID14, aminoacids 135-141 of Der p 1]”, the “percentage of CD4+ T cells stained with CD1d tetramers loaded with peptide” value in the experiment with CD4+ NKT cells is listed as ~10%.
Same read-out and setting: to “FSGVAAT (listed as Dermatophagoides pteronyssinus) [SEQ ID13, aminoacids 38-44 of Der p 1]” belongs ~10%.
On to “FWKVQHH (listed as Homo sapiens) [SEQ ID2, FVIII A3 domain aminoacids 1816-1822 CD1d motif; tested as 15 aminoacid long FVIII peptide containing it]”, for which the “binding of CD1d tetramers loaded with peptide” value with NKT cells [1] is recorded as “Significant binding”. Moreover, in the experiment with hemophilia A mice, the “activation of NKT cells” value was “sufficient as to elicit the activation of NKT cells”.
As for “SKLIESS (listed as Malus domestica) [SEQ ID10, synthetic peptide of Mal d 1 motif with F144S and Y150S mutations]”, the “proportion of NKT cells recognizing peptide-loaded human CD1d tetramers” value with NKT cells [2] is recorded as “less than 1%”. Further, in the experiment on NKT cells [3] (setting [6]), the “activation of NKT cells” value is “did not”.
On to “FHAINGY [SEQ ID3, FVIII A3 domain aminoacids 1918-1924 CD1d motif; tested as 15 aminoacid long FVIII peptide containing it]”, for which the “binding of CD1d tetramers loaded with peptide” value with NKT cells [1] is given as “Significant binding”. Besides, the “activation of NKT cells” value with hemophilia A mice is on record as “sufficient as to elicit the activation of NKT cells”.
Regarding “HEALHNH (listed as Homo sapiens) [SEQ ID20, CH3 loop of IgG1, IgG2 and IgG4]”, the “proportion of NKT cells labeled by tetramers” value with NKT cells [4] is on record as ~10%.
Still for that read-out and setting: for “YRVVSVL (listed as Homo sapiens) [SEQ ID18, CH2 of IgG1 and IgG4]” the value was ~10%.
In the case of “FCHISSH (listed as Homo sapiens) [SEQ ID1, FVIII A1 domain aminoacids 309-315 CD1d motif; tested as 15 aminoacid long FVIII peptide containing it]”, in the experiment with NKT cells [1] (FIG. 1, CD4+ T cells of hemophilia A mice immunized with Factor VIII), the “% of NKT cells recognizing peptide-loaded CD1d tetramers” value was “Up to 45%”. In addition, in the experiment on NKT cells [1], the “binding of CD1d tetramers loaded with peptide” value was “Significant binding”. Besides, the “activation of NKT cells” value in the experiment on hemophilia A mice is “sufficient as to elicit the activation of NKT cells; also recorded: Prominent activation”.
On to “FRVVSVL (listed as Homo sapiens) [SEQ ID19, CH2 of IgG2 and IgG3]”, for which the “proportion of NKT cells labeled by tetramers” value in the experiment on NKT cells [4] is ~10%.
On to “FKLIESY (listed as Malus domestica) [SEQ ID9, synthetic peptide, aminoacids 144-150 of Mal d 1]”, for which, in the experiment with NKT cells [2], the “recognition of peptide-loaded human CD1d tetramers by NKT cells” value is on record as “recognized by a significant proportion of NKT cells”. Further, in the experiment with NKT cells [3] (setting [6]), the “activation of NKT cells” value is “activated a significant proportion of NKT cells”.
As for “YPYVVIL (listed as Dermatophagoides pteronyssinus) [SEQ ID15, aminoacids 216-222 of Der p 1]”, the “percentage of CD4+ T cells stained with CD1d tetramers loaded with peptide” value in the experiment with CD4+ NKT cells is ~10%.

B1: Der p 1: cysteine protease, main allergen of house dust mite D. pteronyssinus, natural sequence (protein, listed as Dermatophagoides pteronyssinus)
chain: ETNACSINGNAPAEIDLRQMRTVTPIRMQGGCGSCWAFSGVAATESAYLAYRNQSLDLAEQELVDCASQHGCHGDTIPRGIEYIQHNGVVQESYYRYVAREQSCRRPNAQRFGISNYCQIYPPNVNKIREALAQTHSAIAVIIGIKDLDAFRHYDGRTIIQRDNGYQPNYHAVNIVGYSNAQGVDYWIVRNSWDTNWGDNGYGYFAANIDLMMIEEYPYVVIL
On to B1, for which the “NKT activation (production of IFN-gamma and IL-4)” value in the experiment with NKT cells [5] is given as “significant production of cytokines”.

B2: SEQ ID16: mature Der p 1 with P1 anchoring residues F38S, H135S and Y216S mutated (protein, listed as Dermatophagoides pteronyssinus)
chain: B1 chain with F38S, H136S, Y217S
For the molecule B2, in the experiment on CD4+ NKT cells (mice given the protein by nasal instillation), the “binding of CD4+ T cell splenocytes to tetramers loaded with peptide of SEQ ID13, SEQ ID14 or SEQ ID15” value was “no significant binding”. Moreover, the “NKT activation (production of IFN-gamma and IL-4)” value in the experiment with NKT cells [5] is recorded as “failed to be activated”.

B3: SEQ ID11: alpha-gliadin polypeptide, natural sequence with CD1d binding motif (protein, listed as Homo sapiens)
chain: MVRVPVPQLQPQNPSQQQPQEQVPLVQQQQFPGQQQPFPPQQPYPQPQPFPSQQPYLQLQPFPQPQLPYPQPQLPYPQPQLPYPQPQPFRPQQPYPQSQPQYSQPQQPISQQQQQQQQQQQQKQQQQQQQQILQQILQQQLIPCRDVVLQQHSIAYGSSQVLQQSTYQLVQQLCCQQLWQIPEQSRCQAIHNVVHAIILHQQQQQQQQQQQQPLSQVSFQQPQQQYPSGQGSFQPSQQNPQAQGSVQPQQLPQFEEIRNLALETLPAMCNVYIPPYCTIAPVGIFGTNYR
Regarding B3, in the experiment with NKT cells [3] (setting [7]), the “activation of NKT cells” value is reported as “activated a significant proportion of NKT cells”.

B4: SEQ ID12: mutated form of alpha-gliadin in which the F residue of the motif was substituted by S (protein, listed as Homo sapiens)
chain: B3 chain with Y56S, Y167S, H191S, F254S, Y276S
On to B4, for which, in the experiment with NKT cells [3] (setting [7]), the “activation of NKT cells” value is “failed to do so”.
